# Measurements: PubChem BioAssay AID330 (DTP/NCI, 2004)
# Values joined by “and” are separate entries in the source; they are usually repeats but may differ in a detail not shown here. Identical values can stand only once. Toxic doses and inconclusive results are not listed.
# System: P388 leukemia ip, CD2F1 mice, survival T/C
# Test: NCI In Vivo Anticancer Drug Screen. Data for tumor model P388 Leukemia (intraperitoneal) in CD2F1 (CDF1) mice
# Settings: endpoint: median survival time, higher = longer survival
# In short: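 Mice carrying the transplanted tumor received test compound or vehicle. Survival was recorded in each group, and the value is the treated-group measurement divided by that of the vehicle-treated control group.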
# [1] = dose: 50.0 mg/kg/injection, schedule: Q01DX009 (ip), vehicle: saline
# [2] = dose: 50.0 mg/kg/injection, schedule: Q04DX003 (ip), vehicle: saline
# [3] = dose: 100.0 mg/kg/injection, schedule: Q04DX003 (ip), vehicle: saline
# [4] = dose: 12.5 mg/kg/injection, schedule: Q01DX009 (ip), vehicle: saline
# [5] = dose: 25.0 mg/kg/injection, schedule: Q01DX009 (ip), vehicle: saline
# [6] = dose: 100.0 mg/kg/injection, schedule: Q01DX009 (ip), vehicle: saline with Tween-80
# [7] = dose: 200.0 mg/kg/injection, schedule: Q01DX009 (ip), vehicle: saline with Tween-80
# [8] = dose: 400.0 mg/kg/injection, schedule: Q01DX009 (ip), vehicle: saline with Tween-80
# [9] = dose: 100.0 mg/kg/injection, schedule: Q04DX002 (ip), vehicle: Klucel (hydroxypropylcellulose) (HPC)
# [10] = dose: 200.0 mg/kg/injection, schedule: Q04DX002 (ip), vehicle: Klucel (hydroxypropylcellulose) (HPC)
# [11] = dose: 50.0 mg/kg/injection, schedule: Q01DX009 (ip), vehicle: Klucel (hydroxypropylcellulose) (HPC)
# [12] = dose: 100.0 mg/kg/injection, schedule: Q01DX009 (ip), vehicle: Klucel (hydroxypropylcellulose) (HPC)
# [13] = dose: 200.0 mg/kg/injection, schedule: Q01DX009 (ip), vehicle: Klucel (hydroxypropylcellulose) (HPC)
# [14] = dose: 60.0 mg/kg/injection, schedule: Q01DX005 (ip), vehicle: saline with Tween-80
# [15] = dose: 120.0 mg/kg/injection, schedule: Q01DX005 (ip), vehicle: saline with Tween-80
# [16] = dose: 240.0 mg/kg/injection, schedule: Q01DX005 (ip), vehicle: saline with Tween-80
# [17] = dose: 60.0 mg/kg/injection, schedule: Q01DX005 (ip), vehicle: saline
# [18] = dose: 120.0 mg/kg/injection, schedule: Q01DX005 (ip), vehicle: saline
# [19] = dose: 240.0 mg/kg/injection, schedule: Q01DX005 (ip), vehicle: saline
smiles,measurement,setting,value
CCOC(=O)CCN(Cc1ccccc1)CC(C)C(=O)OC (stereo unspecified),T/C,"dose: 100.0 mg/kg/injection, schedule: Q04DX003 (ip), vehicle: saline with Tween-80",100 % of control
same,T/C,"dose: 200.0 mg/kg/injection, schedule: Q04DX003 (ip), vehicle: saline with Tween-80",100 % of control
same,T/C,"dose: 400.0 mg/kg/injection, schedule: Q04DX003 (ip), vehicle: saline with Tween-80",100 % of control
CCCC(CCC)=NCCN=C(CCC)CCC,T/C,[1],100 % of control
same,T/C,[2],95 % of control
same,T/C,"dose: 100.0 mg/kg/injection, schedule: Q01DX009 (ip), vehicle: saline",100 % of control
same,T/C,[3],95 % of control
same,T/C,"dose: 200.0 mg/kg/injection, schedule: Q01DX009 (ip), vehicle: saline",104 % of control
same,T/C,"dose: 200.0 mg/kg/injection, schedule: Q04DX003 (ip), vehicle: saline",91 % of control
CN1C2CCC1CC(OC(=O)CBr)C2 (stereo unspecified),T/C,[4],115 % of control
same,T/C,[5],107 % of control
same,T/C,[1],117 % of control and 120 % of control
Cc1nn(C(N)=S)c(C)c1N=Nc1ccc(F)cc1,T/C,"dose: 25.0 mg/kg/injection, schedule: Q01DX005 (ip), vehicle: Klucel (hydroxypropylcellulose) (HPC)",96 % of control
same,T/C,"dose: 50.0 mg/kg/injection, schedule: Q01DX005 (ip), vehicle: Klucel (hydroxypropylcellulose) (HPC)",102 % of control
same,T/C,"dose: 100.0 mg/kg/injection, schedule: Q01DX005 (ip), vehicle: Klucel (hydroxypropylcellulose) (HPC)",90 % of control
CN(C)C(=O)C(=O)C1C=Cc2ccccc21 (stereo unspecified),T/C,[6],100 % of control
same,T/C,[7],90 % of control
same,T/C,[8],95 % of control
CCN(CC)C1=NS(=O)(=O)c2ccccc2C(=O)C1C (stereo unspecified),T/C,[9],102 % of control
same,T/C,[10],100 % of control
same,T/C,"dose: 400.0 mg/kg/injection, schedule: Q04DX002 (ip), vehicle: Klucel (hydroxypropylcellulose) (HPC)",100 % of control
COc1ccc(C(=O)CC[N+](C)(C)C)cc1,T/C,[4],106 % of control
same,T/C,[5],101 % of control
COc1ccc2cc3cc[n+](C)cc3cc2c1OC,T/C,"dose: 12.5 mg/kg/injection, schedule: Q01DX009 (ip), vehicle: water",114 % of control
same,T/C,"dose: 25.0 mg/kg/injection, schedule: Q01DX009 (ip), vehicle: water",119 % of control
COc1ccc(S(=O)(=O)c2cnc(N3CCCCC3)nc2N)cc1,T/C,"dose: 100.0 mg/kg/injection, schedule: Q04DX002 (ip), vehicle: saline",100 % of control
same,T/C,"dose: 200.0 mg/kg/injection, schedule: Q04DX002 (ip), vehicle: saline",98 % of control
same,T/C,"dose: 400.0 mg/kg/injection, schedule: Q04DX002 (ip), vehicle: saline",97 % of control
O=S(=O)(O)c1cc(N=C=S)ccc1/C=C/c1ccc(N=C=S)cc1S(=O)(=O)O,T/C,"dose: 25.0 mg/kg/injection, schedule: Q01DX005 (ip), vehicle: saline",108 % of control and 110 % of control
NC(=O)c1[nH]c(/N=N/c2nc[nH]c2C(N)=O)nc1N,T/C,[11],99 % of control
same,T/C,[12],99 % of control
same,T/C,[13],93 % of control
COc1ccc(N=Cc2cccs2)cc1,T/C,[11],94 % of control
same,T/C,[12],114 % of control
same,T/C,[13],105 % of control
CSc1c2c([nH]c(=O)c1C#N)-c1ccccc1CC2,T/C,"dose: 30.0 mg/kg/injection, schedule: Q01DX005 (ip), vehicle: saline with Tween-80",89 % of control
same,T/C,[14],91 % of control
same,T/C,[15],95 % of control and 96 % of control
same,T/C,[16],88 % of control
CCN1C(=NCCO)NS(=O)(=O)c2ccccc21,T/C,[14],95 % of control
same,T/C,[15],106 % of control
same,T/C,[16],99 % of control
Brc1ccc2nc3ccccc3c(SCCCCCCSc3c4ccccc4nc4ccc(Br)cc34)c2c1,T/C,"dose: 60.0 mg/kg/injection, schedule: Q01DX005 (ip), vehicle: Klucel (hydroxypropylcellulose) (HPC)",87 % of control and 93 % of control
same,T/C,"dose: 120.0 mg/kg/injection, schedule: Q01DX005 (ip), vehicle: Klucel (hydroxypropylcellulose) (HPC)",89 % of control
same,T/C,"dose: 240.0 mg/kg/injection, schedule: Q01DX005 (ip), vehicle: Klucel (hydroxypropylcellulose) (HPC)",91 % of control
Nc1nc(N)nc(N)n1,T/C,[6],106 % of control
same,T/C,[7],107 % of control
same,T/C,[8],99 % of control
same,T/C,"dose: 800.0 mg/kg/injection, schedule: Q01DX009 (ip), vehicle: saline with Tween-80",96 % of control
CN(C)CCOC(c1ccccc1)c1ccccc1,T/C,"dose: 25.0 mg/kg/injection, schedule: Q04DX003 (ip), vehicle: saline",100 % of control
same,T/C,[2],100 % of control
same,T/C,[3],108 % of control
CN(C)c1ccc(C(O)Cc2ccc3ccccc3n2)cc1 (stereo unspecified),T/C,[11],113 % of control
same,T/C,[12],92 % of control
same,T/C,[13],92 % of control
C=C1C[C@@H]2[C@H](C1=O)[C@@H]1CC[C@H]3O[C@]31C2(C)C,T/C,"dose: 50.0 mg/kg/injection, schedule: Q04DX002 (ip), vehicle: Klucel (hydroxypropylcellulose) (HPC)",106 % of control
same,T/C,[9],101 % of control
same,T/C,[10],100 % of control
OCC1OC(n2ccc3c(NO)ncnc32)C(O)C1O (stereo unspecified),T/C,"dose: 0.46 mg/kg/injection, schedule: Q01DX005 (ip), vehicle: Klucel (hydroxypropylcellulose) (HPC)",112 % of control
CC1(C)OC2(C)CCC1C1C2N1C(=O)Nc1ccccc1 (stereo unspecified),T/C,"dose: 50.0 mg/kg/injection, schedule: Q01DX005 (ip), vehicle: saline with Tween-80",101 % of control
same,T/C,"dose: 100.0 mg/kg/injection, schedule: Q01DX005 (ip), vehicle: saline with Tween-80",106 % of control
same,T/C,"dose: 200.0 mg/kg/injection, schedule: Q01DX005 (ip), vehicle: saline with Tween-80",101 % of control
O=c1[nH]cncc1CCC1OCCO1,T/C,[17],97 % of control
same,T/C,[18],98 % of control
same,T/C,[19],103 % of control
C[n+]1ccc(Nc2ccc(NC(=O)c3ccc(Nc4cc[n+](C)c5ccc(N)cc45)cc3N)cc2)cc1,T/C,"dose: 0.18 mg/kg/injection, schedule: Q01DX009 (ip), vehicle: saline with Tween-80",111 % of control
same,T/C,"dose: 0.27 mg/kg/injection, schedule: Q01DX009 (ip), vehicle: saline with Tween-80",124 % of control
same,T/C,"dose: 1.0 mg/kg/injection, schedule: Q01DX009 (ip), vehicle: saline with Tween-80",157 % of control
same,T/C,"dose: 1.33 mg/kg/injection, schedule: Q01DX009 (ip), vehicle: saline with Tween-80",154 % of control
same,T/C,"dose: 1.5 mg/kg/injection, schedule: Q01DX009 (ip), vehicle: saline with Tween-80",163 % of control
same,T/C,"dose: 2.0 mg/kg/injection, schedule: Q01DX009 (ip), vehicle: saline with Tween-80",200 % of control
same,T/C,"dose: 3.0 mg/kg/injection, schedule: Q01DX009 (ip), vehicle: saline with Tween-80",245 % of control
same,T/C,"dose: 3.13 mg/kg/injection, schedule: Q01DX009 (ip), vehicle: saline with Tween-80",271 % of control
same,T/C,"dose: 4.5 mg/kg/injection, schedule: Q01DX009 (ip), vehicle: saline with Tween-80",257 % of control
same,T/C,"dose: 5.0 mg/kg/injection, schedule: Q04DX003 (ip), vehicle: saline with Tween-80",154 % of control
same,T/C,"dose: 6.25 mg/kg/injection, schedule: Q01DX009 (ip), vehicle: saline with Tween-80",274 % of control
same,T/C,"dose: 7.5 mg/kg/injection, schedule: Q04DX003 (ip), vehicle: saline with Tween-80",163 % of control
same,T/C,"dose: 12.5 mg/kg/injection, schedule: Q01DX009 (ip), vehicle: saline with Tween-80",275 % of control
same,T/C,"dose: 25.0 mg/kg/injection, schedule: Q01DX009 (ip), vehicle: saline with Tween-80",100 % of control
OCc1c(-c2ccccc2)nc2n1CCS2,T/C,"dose: 100.0 mg/kg/injection, schedule: Q01DX001 (ip), vehicle: Klucel (hydroxypropylcellulose) (HPC)",102 % of control
same,T/C,"dose: 200.0 mg/kg/injection, schedule: Q01DX001 (ip), vehicle: Klucel (hydroxypropylcellulose) (HPC)",102 % of control
same,T/C,"dose: 400.0 mg/kg/injection, schedule: Q01DX001 (ip), vehicle: Klucel (hydroxypropylcellulose) (HPC)",98 % of control
C1CC2(CC3(C1)SCCS3)SCCS2,T/C,[11],94 % of control
same,T/C,[12],101 % of control
same,T/C,[13],101 % of control
c1ccc(-c2nc3n(n2)CCC(c2ccccc2)S3)cc1 (stereo unspecified),T/C,[14],92 % of control
same,T/C,[15],89 % of control
same,T/C,[16],87 % of control
O=S(=O)(c1ccccc1)[C@H]1[C@@H]2O[C@@H]2C[C@@H]1O,T/C,[17],104 % of control
same,T/C,[18],103 % of control
same,T/C,[19],98 % of control
